According to paper PMC5701947, “β1-Adrenergic Receptor Contains Multiple IA^k and IE^k Binding Epitopes That Induce T Cell Responses with Varying Degrees of Autoimmune Myocarditis in A/J Mice” (Frontiers in Immunology, 2017):
No end group written: not given here.

Tests used:
CD4 T cells [1] = assay: IE^k dextramer staining of CD4 T cells; format: cell-based, A/J mice; settings: IE^k dextramers; cells from β1ARAc 181–200-immunized mice; P = 0.028 vs control dextramer; Figure 4B
Text: (§1) To enumerate the frequencies of antigen-specific CD4 T cells, we created IA^k dextramers for β1AR 171-190 and β1AR 211–230, and IE^k dextramers for β1AR 181–200. To create IA^k dextramers, the nucleotide sequence for β1AR 171–190 ([…]) and β1AR 211–230 ([…]) was inserted into the IA^k-β construct that we had described previously ([35], [39]), whereas IA^k/RNase 43–56 (control) dextramers were readily available in our laboratory ([30], [35], [40]). The soluble, IA^k/β1AR 171–190 and IA^k/β1AR 211–230 molecules were expressed in sf9 cells using baculovirus expression system. After purifying through anti-IA^k-affinity column, the IA^k/β1AR 171–190 and IA^k/β1AR 211–230 monomers were biotinylated and dextramers were derived using streptavidin (SA)/fluorophore-conjugated dextran molecules as described previously ([35], [39]). […]
(§2) To stain with dextramers, lymphocytes obtained from lymph nodes and spleens from immunized animals were stimulated with the immunizing peptides namely, β1ARAc 171–190, β1ARAc 181–200, and β1ARAc 211–230 (20 µg/ml) for 2 days and growth medium containing interleukin (IL)-2 (IL-2 medium) was then added. […] After washing, and acquisition by flow cytometry, percent dextramer^+ (dext^+) cells were analyzed within the live cells (7-AAD^−) using Flow Jo software ([34], [35], [39]).

Balb/c mice = settings: cited from earlier work
Text: It has been proposed that acetylated peptides can be prevented from intracellular degradation leading to their stable binding to MHC molecules ([29], [50]). Thus, we decided to use the acetylated peptides, and focused only the peptides that were located within the stretch of β1AR 171–230 (Table 1).

[2] = test system: lymph node cell (LNC) cultures; assay: Cytokine secretion (bead array); format: cell-based, A/J mice; settings: LNC supernatants, 50–100 µg/ml, day 3; P = 0.06
Experimental: Supernatants were obtained from lymph node cell (LNC) cultures prepared from immunized animals that were stimulated with or without acetylated or non-acetylated, β1AR 171–190, β1AR 181–200, and β1AR 211–230 and RNase 43–56/HEL 46–61 (controls) (50–100 µg/ml) on day 3 poststimulations. Cytokine analysis was performed using beads conjugated with capture and detection Abs with the standard curves being derived from serial dilutions of mouse cytokine standard mixtures, consisting of IL-2, interferon (IFN)-γ, IL-4, IL-6, IL-10, IL-17A, and tumor necrosis factor (TNF)-α as recommended by the manufacturer’s guidelines (BD Biosciences). Briefly, capture bead/cytokine antibody conjugates were first prepared, and the mixtures were added to a tube containing diluted standards or test samples, followed by addition of detection antibodies. After acquiring by flow cytometry, FCAP Array Software was used to analyze the data (BD Biosciences) ([26], [30]).

A/J mice (hearts) = assay: Induction of myocarditis by active immunization with peptides (histology); format: in vivo; settings: for Myocarditis incidence / Myocarditis incidence (animals with disease/total) / Inflammatory foci: individual non-acetylated peptide, 100 µg per animal; for Myocarditis incidence / Myocarditis incidence (animals with disease/total): CFA/PT, days 0 and 7, day 21; for Inflammatory foci: mean ± SEM of myocarditic animals
[3] = test system: T cells (lymph node cells/splenocytes from immunized animals); assay: T cell proliferation assay ([3H]-thymidine); format: cell-based, A/J mice; settings: for T cell responses: fold vs medium control; for T cell responses (in words): proliferation, 0–100 µg/ml, 2 days + 16 h [3H]-thymidine, cpm
Procedure, shortened: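 Lymph node cells and splenocytes from immunized animals, or magnetically enriched CD4/CD8 T cells (~95% pure) plus peptide-loaded irradiated syngeneic naive splenocytes (1:1), stimulated at ~5 × 10^6 cells/ml with immunizing peptide (0–100 µg/ml) for 2 days. Pulsed with [3H]-thymidine for 16 h; proliferation read as cpm.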

antigen-primed T cells = assay: Cytokine-producing cells after Th1/Th17 polarization (flow cytometry); format: cell-based, A/J mice; settings: Figure S4
Experimental: Lymph node cells obtained from animals immunized with individual peptides, β1ARAc 171–190, β1ARAc 181–200, or β1ARAc 211–230 on day 21 postimmunizations were stimulated with the corresponding immunizing peptides (20 µg/ml) for 2 days followed by resting in IL-2 medium. In a separate set of experiments, animals were immunized with a mixture of β1ARAc 171–190, 181–200, and 211–230 peptides and their lymphocytes were stimulated with the immunizing peptides individually (50 µg/ml) for 2 days and then IL-2 medium was added. On day 3, one of the two aliquots of cells were exposed to a mixture of Th1- and Th17-polarizing conditions by adding recombinant mouse IL-12 (20 ng/ml), IL-1β (30 ng/ml), IL-6 (30 ng/ml), IL-23 (50 ng/ml) (all cytokines were procured from BioLegend, San Diego, CA, USA), and human transforming growth factor-β1 (10 ng/ml; eBioscience, San Diego, CA, USA) as reported previously ([41]–[44]), and the other was maintained in IL-2 medium alone. Flow cytometrically, we analyzed the percentages of cytokine-producing cells on days 3 and 6 following polarization as we have described previously ([28], [31], [40]). Viable cells harvested on days 8–10 were administered through i.p., or retro-orbital sinus (4–14 × 10^6 cells/animal) into naive mice primed with lipopolysaccharide (LPS, 25 µg/mouse i.p., day −4 and day 0). […]

[4] = test system: serum antibodies (Igs and isotypes) of immunized mice; assay: ELISA, antibodies that react with β1ARAc peptides; format: in vivo, A/J mice; settings: serum 1:100, day 21, OD 405 nm; five animals per group
Experimental: ELISA was used to measure antibodies that react with β1ARAc peptides in the serum samples collected from immunized animals at termination on day 21 as described previously ([26]). […] After washing/blocking, serum samples (1:100) were added in duplicates, and the plates were incubated at 37°C for 1 h followed by addition of HRP-labeled goat anti-mouse immunoglobulins (Igs), IgG1, IgG2a, IgG2b, IgG3, IgM, IgA, and IgE (Southern Biotech, Birmingham, AL, USA) as secondary antibodies. Two hours after incubation at RT, 1 × tetramethylbenzidine solution was added as a substrate (eBioscience), and reactions were stopped using 1 M phosphoric acid. The plates were read at 405 nm using an automated ELISA reader (BioTek instruments, Winooski, VT, USA) to measure OD values ([26], [46]).

CD4 T cells [5] = assay: IA^k dextramer staining of CD4 T cells; format: cell-based, A/J mice; settings: IA^k dextramers
Text: as §1, §2

CD4 T cells [6] = assay: T cell proliferation assay, enriched CD4 T cells; format: cell-based, A/J mice; settings: CD4 T cells ~95% purity from immunized mice; peptide-loaded irradiated splenocytes 1:1; Figure S3B
Experimental: (§3) At termination, lymph nodes (maxillary, mandibular, axillary, inguinal, and popliteal) and spleens were harvested from immunized animals to prepare single cell suspensions. Similarly, splenocytes were prepared from naive animals. After lysing the erythrocytes and washing, cell pellets were suspended in RPMI medium containing 10% fetal bovine serum, 1 mM sodium pyruvate, 4 mM L-glutamine, 1 × each of non-essential amino acids and vitamin mixture, and 100 U/ml penicillin–streptomycin (Lonza, Walkersville, MD, USA; hereafter called growth medium). In some experiments, CD4 T cells and CD8 T cells were enriched to a purity of ~95% by negative selection based on magnetic separation using IMAG (BD Biosciences, San Jose, CA, USA) ([31]). To stimulate CD4 and CD8 T cells, syngeneic naive irradiated splenocytes loaded with peptides were used as antigen-presenting cells at a ratio of 1:1. Cells were stimulated at a density of ~5 × 10^6 cells/ml in triplicates with or without the immunizing peptides (0–100 µg/ml) in growth medium. RNase 43–56 or HEL 46–61 were used as irrelevant controls. After 2 days, cells were pulsed with tritiated ^3[H]-thymidine (1 μCi/well; MP Biomedicals, Santa Ana, CA, USA), and 16 h later, proliferative responses were measured as counts per minute (cpm) using a Wallac liquid scintillation counter (Perkin Elmer, Waltham, MA, USA) ([26], [28], [30]).

CD8 T cells = assay: T cell proliferation assay, enriched CD8 T cells; format: cell-based, A/J mice; settings: CD8 T cells ~95% purity from immunized mice; peptide-loaded irradiated splenocytes 1:1; Figure S3B
Experimental: as §3

[7] = 10 μg/ml, animals immunized with pool IV
[8] = 100 μg/ml, animals immunized with pool IV

Substance: FAGLKKANERADLIAYLKQATK [MCC 82–103]
- percent dext^+ CD4^high T cells (CD4 T cells [1]): 0.33 ± 0.03%

Substance: Myhc 614–643: cardiac myosin heavy chain-α 614–643 (Ac-SLKLMATLFSTYASADTGDSGKGKGGKKKG; UniProt Q02566 614-643, looked up, fragment)
- Myocarditis by N-terminally acetylated peptide (in words) (Balb/c mice): can induce significant myocarditis

Substance: TRARARALVCTVWAISALVS [β1AR 171-190, 20-mer of mouse β1AR peptide library]
- IL-17A production (in words) [2]: tended to be elevated
- Myocarditis incidence (A/J mice (hearts)): 0%
- Myocarditis incidence (animals with disease/total) (A/J mice (hearts)): 0/5
- Inflammatory foci (A/J mice (hearts)): 0
- T cell responses [3, 7]: 2.68 fold
- T cell responses [3, 8]: 5.13 fold

Substance: TVWAISALVSFLPILMHWWR [β1AR 181-200, 20-mer of mouse β1AR peptide library]
- IL-17A production (in words) [2]: tended to be elevated
- Disease severity (in words) (A/J mice (hearts); individual immunization, non-acetylated peptides): mild disease
- Myocarditis incidence (A/J mice (hearts)): 20%
- Myocarditis incidence (animals with disease/total) (A/J mice (hearts)): 1/5
- Inflammatory foci (A/J mice (hearts)): 2
- T cell responses [3, 7]: 1.70 fold
- T cell responses [3, 8]: 2.30 fold
- Th1 cytokine-producing cells (in words) (antigen-primed T cells): significantly enhanced

Substance: VNTFVHESLADVQA [RNase 43–56, bovine ribonuclease 43–56, irrelevant control, reference compound]
- Antibody response, total Igs (in words) [4]: lacking
- percent dext^+ CD4^high T cells (CD4 T cells [5]; cells from β1ARAc 171–190-immunized mice, P = 0.049 vs control dextramer, Figure 4A): 0.52 ± 0.08%
- percent dext^+ CD4^high T cells (CD4 T cells [5]; cells from β1ARAc 211–230-immunized mice, P = 0.0003 vs control dextramer, Figure 4C): 0.12 ± 0.01%
- T cell responses ([3]; 10 μg/ml, animals immunized with pool I): 1.05 fold
- T cell responses ([3]; 10 μg/ml, animals immunized with pool II): 1.06 fold
- T cell responses ([3]; 10 μg/ml, animals immunized with pool III): 1.04 fold
- T cell responses [3, 7]: 1.06 fold
- T cell responses ([3]; 10 μg/ml, animals immunized with pool IX): 0.80 fold
- T cell responses ([3]; 10 μg/ml, animals immunized with pool V): 1.06 fold
- T cell responses ([3]; 10 μg/ml, animals immunized with pool VI): 0.73 fold
- T cell responses ([3]; 10 μg/ml, animals immunized with pool VII): 1.16 fold
- T cell responses ([3]; 10 μg/ml, animals immunized with pool VIII): 0.91 fold
- T cell responses ([3]; 100 μg/ml, animals immunized with pool I): 1.42 fold
- T cell responses ([3]; 100 μg/ml, animals immunized with pool II): 1.20 fold
- T cell responses ([3]; 100 μg/ml, animals immunized with pool III): 1.14 fold
- T cell responses [3, 8]: 1.15 fold
- T cell responses ([3]; 100 μg/ml, animals immunized with pool IX): 0.83 fold
- T cell responses ([3]; 100 μg/ml, animals immunized with pool V): 1.14 fold
- T cell responses ([3]; 100 μg/ml, animals immunized with pool VI): 1.10 fold
- T cell responses ([3]; 100 μg/ml, animals immunized with pool VII): 1.16 fold
- T cell responses ([3]; 100 μg/ml, animals immunized with pool VIII): 0.81 fold
- T cell responses (in words) [3]: lacking

Substance: YNTDGSTDYGILQINSR [HEL 46–61]
- CD4 T cell proliferative response (in words) (CD4 T cells [6]): lacking
- T cell responses (in words) [3]: lacking
- CD8 T cell proliferative response (in words) (CD8 T cells): lacking
